The text below walks through data of ChEMBL document CHEMBL2073973, “Mitotracker green is a P-glycoprotein substrate” (Biosci Rep, 2003).

In this data set the target is ATP-dependent translocase ABCB1 (Homo sapiens, UniProt P08183). The data set can be described thus: TP_TRANSPORTER: cell accumulation in Lucena-1 cells. Format: functional, cell-based.
Sequence of ATP-dependent translocase ABCB1 (P08183 whole entry): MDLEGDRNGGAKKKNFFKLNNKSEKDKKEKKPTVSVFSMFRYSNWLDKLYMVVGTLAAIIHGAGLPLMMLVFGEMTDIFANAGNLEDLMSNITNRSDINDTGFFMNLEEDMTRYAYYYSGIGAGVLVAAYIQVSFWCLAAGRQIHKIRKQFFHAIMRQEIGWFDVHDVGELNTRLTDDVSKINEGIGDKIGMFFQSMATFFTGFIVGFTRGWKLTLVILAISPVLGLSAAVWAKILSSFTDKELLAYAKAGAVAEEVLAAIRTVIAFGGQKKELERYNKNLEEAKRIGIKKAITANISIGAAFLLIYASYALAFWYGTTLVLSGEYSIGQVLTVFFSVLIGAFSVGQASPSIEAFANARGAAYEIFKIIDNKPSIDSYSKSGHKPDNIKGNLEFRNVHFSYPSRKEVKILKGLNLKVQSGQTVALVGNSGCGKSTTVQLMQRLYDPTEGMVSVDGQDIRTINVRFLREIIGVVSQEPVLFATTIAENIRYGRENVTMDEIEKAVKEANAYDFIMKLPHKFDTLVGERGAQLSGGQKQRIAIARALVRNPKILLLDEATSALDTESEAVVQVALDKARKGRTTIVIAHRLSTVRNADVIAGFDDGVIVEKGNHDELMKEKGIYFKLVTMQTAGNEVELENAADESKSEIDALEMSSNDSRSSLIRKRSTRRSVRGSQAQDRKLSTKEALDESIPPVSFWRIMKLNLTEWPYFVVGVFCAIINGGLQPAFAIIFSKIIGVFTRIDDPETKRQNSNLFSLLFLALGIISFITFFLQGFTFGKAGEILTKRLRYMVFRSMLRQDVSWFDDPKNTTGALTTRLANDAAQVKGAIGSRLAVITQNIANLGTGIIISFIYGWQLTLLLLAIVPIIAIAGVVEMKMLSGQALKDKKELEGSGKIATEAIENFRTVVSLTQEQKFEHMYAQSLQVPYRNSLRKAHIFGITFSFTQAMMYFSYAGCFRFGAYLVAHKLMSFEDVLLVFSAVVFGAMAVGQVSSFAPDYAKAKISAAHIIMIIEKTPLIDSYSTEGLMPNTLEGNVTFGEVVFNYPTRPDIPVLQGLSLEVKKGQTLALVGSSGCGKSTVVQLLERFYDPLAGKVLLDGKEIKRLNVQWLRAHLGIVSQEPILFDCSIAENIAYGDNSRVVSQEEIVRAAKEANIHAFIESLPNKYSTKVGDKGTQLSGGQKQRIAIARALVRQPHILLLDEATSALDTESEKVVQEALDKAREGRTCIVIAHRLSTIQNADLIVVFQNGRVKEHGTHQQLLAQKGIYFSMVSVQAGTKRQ

As to `CN1C(=CC=Cc2n(Cc3ccc(CCl)cc3)c3cc(Cl)c(Cl)cc3[n+]2Cc2ccc(CCl)cc2)Oc2ccccc21.[Cl-]` [MITOTRACKER GREEN], the Activity result was “substrate [+]”.
